Counter-ions that a name gives are not always drawn. Like-named read-outs stand apart in the source and are kept apart here.
Experiments:
[1] = system: human neutrophils; assay: cis-unsaturated fatty acid-induced lipid body formation in human neutrophils (osmium staining, light microscopy enumeration); type: cell-based; details: for inhibition at 1 µM / inhibition at 10 µM / inhibition at 1 µg/mL / inhibition at 5 µM / inhibition at 10 µg/mL / inhibition at 0.5 µM: Homo sapiens, Neutrophil, basal subtracted; for inhibition at 1 µM / inhibition at 10 µM: read-out: % inhibition; for inhibition of arachidonic acid-induced lipid body formation / inhibition of oleic acid-induced lipid body formation: human neutrophils, staurosporine 0.1-1.0 μM, aspirin 10 μg/mL, others as in Tables 1 and 2; for inhibition at 1 µg/mL / inhibition at 10 µg/mL: 1 h
Description: Neutrophils were purified from fresh human blood obtained by venipuncture from healthy adult volunteers and collected into acidified citrate. After addition of 6% dextran 70 (McGaw, Irvine, Calif.), RBCs were allowed to sediment for 1 hour at room temperature. The leukocyte-rich supernatant was overlaid onto an equal volume of Ficoll-Paque gradient (Piscataway, N.J.), and centrifuged at 400×g for 20 min. […] Residual RBCs were lysed with hypotonic saline.
Human leukocytes (10^6 cells/mL) were incubated with varying concentrations of arachidonic acid (AA), oleic acid (OA) or vehicle at 37° C. in a 5% CO2 /95% O2 atmosphere, and after 1 hour leukocytes (10^5 cells per slide) were cytocentrifuged (550 rpm, 5 min) onto glass slides. During inhibitory studies, neutrophils were pretreated for 1 hour with varying concentrations of enzyme inhibitors, protein synthesis inhibitors, or vehicle as indicated. When PKC inhibitors were used, the pre-incubation time was reduced to 30 minutes to avoid toxic effects to the cells. […] Stock solutions for A23187, D609, U-73122, and indomethacin were prepared in DMSO and stored at -20° C. Aliquots were diluted in Ca^++ /Mg^++ fee HBSS to the indicated concentration immediately prior to use. […] The morphology of fixed cells was observed, and lipid bodies were enumerated with phase contrast microscopy and a 100× objective lens in 50 consecutively scanned leukocytes.
Results were expressed as mean±SEM and were analyzed statistically by means of the analysis of variance followed by the Newman-Keuls-Student test with the level of significance set at p<0.05. Correlation coefficients were determined by linear regression, and correlation analysis was performed by Fisher's r to z transformation with the level of significance set at p<0.05.
^1 Neutrophils (10^6 /ml) were pretreated with protein kinase C
(actinomycin D, cycloheximide) for 30 min or with phospholipase C
inhibitors (D609, U73122) for 1 h. The cells were then stimulated with
vehicle, arachidonic acid (15 μM), or oleic acid (10 μM), for 1 h.
Results are mean ± SEM from fifty consecutively counted neutrophils.
Statistically significant differences between the agonist alone and the
inhibitor are represented by an asterisk(*). Percent inhibition has been
calculated after subtracting out the basal number of lipid bodies/PMN
present prior to stimulation.
^1 Neutrophils (10^6 /ml) were pretreated with the NSAID or
vehicle for 1 h then stimulated with vehicle, arachidonic acid, or oleic
± SEM from fifty consecutively counted neutrophils. Statistically
significant differences between the agonist alone and the NSAID are
represented by an asterisk (*). Percent inhibition has been calculated
after subtracting out the basal number of lipid bodies/PMN present prior

[2] = system: human neutrophils; details: cited from earlier work
[3] = system: human eosinophils; details: receptor-mediated; cited from earlier work
[4] = system: peritoneal macrophages from COX 1 knockout mice; assay: lipid body formation in peritoneal macrophages from cyclooxygenase-1 knockout mice; type: cell-based, mouse; details: for % inhibition / lipid bodies (mean ± SEM)/macrophage: COX 1 knockout, AA 15 μM; for inhibition of lipid body formation in macrophages: cyclooxygenase-1-deficient mice, 10 μg/mL
Description: (§1) FIG. 4 is a graph illustrating the effects of arachidonic acid and oleic acid on lipid body formation in peritoneal macrophages from wild type (+/+) and cyclooxygenase-1 knockout (-/-) mice. The agonists AA and OA are represented by the square and circle symbols, respectively. The closed symbols represent the wild type mice; the open symbols represent the cyclooxygenase-1 knockout mice. Macrophages (10^6 /mL) were incubated with the agonists AA and OA at varying concentrations for an hour. Lipid bodies were enumerated using light microscopy following osmium staining. Each point represents the mean±SEM from fifty consecutively scanned macrophages.
(§2) Cyclooxygenase-1 and cyclooxygenase-2 knockout mice were generated as recently described (Morham et al., Cell 83:473-482 (1995); Langenbach et al., Cell 83:483-492 (1995)). All experiments were carried out with male 8-12 week old mice. Macrophages from cyclooxygenase genetically deficient mice and wild-type litter mates were obtained by lavaging the peritoneal cavity with 5 mL of cold RPMI containing heparin (20 IU/mL).
(§3) ^1 Peritoneal macrophages from wild type and COX 1 knockout mice were
(§4) pretreated with the NSAID or vehicle for 1h and then stimulated with
(§5) arachidonic acid (AA, 15 μM) or vehicle for 1h. Results are mean ±
(§6) SEM from fifty consecutively counted macrophages. The statistically

[5] = system: neutrophils (arachidonic acid uptake); assay: 14C-arachidonic acid uptake in arachidonic acid-stimulated neutrophils; type: cell-based, human; details: for inhibition of 14C-arachidonic acid uptake: arachidonic acid-stimulated cells, aspirin 10 μg/mL, sodium salicylate 10 μg/mL, indomethacin 1 μg/mL; for 14C-AA uptake: stimulus arachidonate 15 μM, drug 1 μg/ml (table footnote)
Description: Neutrophils (10^6 /mL) were labeled with ^14 C-arachidonic acid (0.01 μCi/sample) together with either vehicle, aspirin (10 μg/mL), indomethacin (1 μg/mL) or sodium salicylate (10 μg/mL) for 1 hour. After the incubation period, lipid body formation was elicited by arachidonic acid (15 μM). The cells were washed 3 times in Ca^++ /Mg^++ free HBSS and analysis of incorporated ^14 C-arachidonic acid in the cell pellet was performed by liquid scintillation counting.
^1 The cells were pretreated with ^14 Carachidonic acid (0.01
μCi/sample) plus vehicle, aspirin (10 μg/ml) , sodium salicylate (1
μg/ml) or indomethacin (1 μg/ml) 1 h before the incubation with
arachidonic acid (15 μM). Cells were washed 3 times before the analysi
of incorporated ^14 Carachidonic acid. Results are representative of
independent experiments.

[6] = system: peritoneal macrophages from wild type mice; assay: lipid body formation in peritoneal macrophages from wild type mice; type: cell-based, mouse; details: for % inhibition / lipid bodies (mean ± SEM)/macrophage: wild type, AA 15 μM; for inhibition of lipid body formation in macrophages: wild-type mice, 10 μg/mL
Description: as §1, §2, §3, §4, §5, §6

[7] = arachidonic acid 15 μM, inhibitor 1 μM
[8] = oleic acid 10 μM, inhibitor 1 μM
[9] = arachidonic acid 15 μM, inhibitor 10 μM
[10] = oleic acid 10 μM, inhibitor 10 μM
[11] = oleic acid 10 μM, NSAID 10 μg/ml, 1 h pretreatment
[12] = arachidonic acid 15 μM, NSAID 10 μg/ml, 1 h pretreatment
[13] = arachidonic acid 15 μM, NSAID 1 μg/ml, 1 h pretreatment
[14] = oleic acid 10 μM, NSAID 1 μg/ml, 1 h pretreatment
[15] = arachidonic acid 15 μM, inhibitor 5 μM
[16] = oleic acid 10 μM, inhibitor 5 μM
[17] = arachidonic acid 15 μM, inhibitor 0.5 μM
[18] = oleic acid 10 μM, inhibitor 0.5 μM

CN[C@@H]1C[C@H]2O[C@@](C)([C@@H]1OC)n1c3ccccc3c3c4c(c5c6ccccc6n2c5c31)C(=O)NC4 [staurosporine]
lipid bodies (mean ± SEM)/cell ([1]; arachidonic acid 15 μM, inhibitor 0.1 μM): 6.1 ± 0.3 lipid bodies/cell
lipid bodies (mean ± SEM)/cell [1, 7]: 5.1 ± 0.2 lipid bodies/cell
lipid bodies (mean ± SEM)/cell ([1]; oleic acid 10 μM, inhibitor 0.1 μM): 8.3 ± 0.3 lipid bodies/cell
lipid bodies (mean ± SEM)/cell [1, 8]: 7.7 ± 0.3 lipid bodies/cell

CCCCCCCC/C=C\CCCCCCCC(=O)OCC(CO)OC(C)=O (racemic)
induction of lipid body formation [2]: induce lipid body formation

CCCCC/C=C\C[C@H](O)/C=C/C=C\C/C=C\CCCC(=O)O [12-HETE]
induction of lipid body formation [3]: elicit lipid body formation
induction of lipid body formation [2]: elicit lipid body formation

CCCCC[C@H](O)/C=C/C=C\C/C=C\C/C=C\CCCC(=O)O [15-HETE]
induction of lipid body formation [3]: elicit lipid body formation
induction of lipid body formation [2]: elicit lipid body formation

S=C(S)OC1CC2CC1C1CCCC21 (stereo not drawn) [D609]
inhibition at 1 µM [1, 7]: 48%
inhibition at 10 µM [1, 9]: 84%
inhibition at 1 µM [1, 8]: 19%
inhibition at 10 µM [1, 10]: 46%
lipid bodies (mean ± SEM)/cell [1, 7]: 6.5 ± 0.2 lipid bodies/cell
lipid bodies (mean ± SEM)/cell [1, 9]: 5.2 ± 0.2 lipid bodies/cell
lipid bodies (mean ± SEM)/cell [1, 8]: 9.4 ± 0.3 lipid bodies/cell
lipid bodies (mean ± SEM)/cell [1, 10]: 7.8 ± 0.2 lipid bodies/cell

O=C(O)c1ccccc1O [Na salicylate, salicylic acid (sodium salt)]
inhibition at 10 µM [1, 11]: 53%
lipid bodies (mean ± SEM) PMN [1, 12]: 7.9 ± 0.4 lipid bodies/PMN
inhibition of arachidonic acid-induced lipid body formation [1]: significantly inhibited
inhibition of oleic acid-induced lipid body formation [1]: significantly inhibited
lipid bodies (mean ± SEM) PMN [1, 11]: 10.1 ± 0.4 lipid bodies/PMN
% inhibition ([4]; NSAID 10 μg/ml): 66%
lipid bodies (mean ± SEM)/macrophage ([4]; NSAID 10 μg/ml): 4.0 ± 0.4 lipid bodies/macrophage
inhibition of lipid body formation in macrophages [4]: significantly inhibited
inhibition of 14C-arachidonic acid uptake [5]: failed to inhibit
14C-AA uptake [5]: 7292 cpm
% inhibition ([6]; NSAID 10 μg/ml): 45%
lipid bodies (mean ± SEM)/macrophage ([6]; NSAID 10 μg/ml): 5.0 ± 0.3 lipid bodies/macrophage
inhibition of lipid body formation in macrophages [6]: significantly inhibited

COc1ccc2c(c1)c(CC(=O)O)c(C)n2C(=O)c1ccc(Cl)cc1 [indomethacin]
inhibition at 1 µg/mL [1, 13]: 63%
inhibition at 1 µg/mL [1, 14]: 61%
lipid bodies (mean ± SEM) PMN [1, 13]: 7.0 ± 0.5 lipid bodies/PMN
inhibition of arachidonic acid-induced lipid body formation [1]: significantly inhibited
inhibition of oleic acid-induced lipid body formation [1]: significantly inhibited
lipid bodies (mean ± SEM) PMN [1, 14]: 9.1 ± 0.5 lipid bodies/PMN
% inhibition ([4]; NSAID 1 μg/ml): 48%
lipid bodies (mean ± SEM)/macrophage ([4]; NSAID 1 μg/ml): 4.8 ± 0.4 lipid bodies/macrophage
inhibition of lipid body formation in macrophages [4]: significantly inhibited
inhibition of 14C-arachidonic acid uptake [5]: failed to inhibit
14C-AA uptake [5]: 7095 cpm
% inhibition ([6]; NSAID 1 μg/ml): 61%
lipid bodies (mean ± SEM)/macrophage ([6]; NSAID 1 μg/ml): 4.4 ± 0.3 lipid bodies/macrophage
inhibition of lipid body formation in macrophages [6]: significantly inhibited

CCCCCCCCCCCCCCCCOCC(COP(=O)([O-])OCC[N+](C)(C)C)OC(C)=O (stereo not drawn) [platelet activating factor]
induction of lipid body formation [3]: elicit lipid body formation
induction of lipid body formation [2]: Lipid body formation is also induced
induction of lipid body formation ([2]; listed as PAF): elicit lipid body formation

CCCCCCCCCCCCCC(=O)O[C@@H]1[C@@H](C)[C@@]2(O)[C@@H](C=C(CO)C[C@]3(O)C(=O)C(C)=C[C@@H]23)[C@@H]2C(C)(C)[C@]12OC(C)=O [phorbol-12-myristate-13-acetate]
induction of lipid body formation [2]: induce lipid body formation

COc1ccc2c(c1)CC[C@@H]1[C@@H]2CC[C@]2(C)[C@@H](NCCCCCCN3C(=O)C=CC3=O)CC[C@@H]12 [U-73122]
inhibition at 1 µM [1, 7]: 45%
inhibition at 5 µM [1, 15]: 85%
inhibition at 1 µM [1, 8]: 8%
inhibition at 5 µM [1, 16]: 24%
lipid bodies (mean ± SEM)/cell [1, 7]: 6.6 ± 0.2 lipid bodies/cell
lipid bodies (mean ± SEM)/cell [1, 15]: 4.9 ± 0.2 lipid bodies/cell
lipid bodies (mean ± SEM)/cell [1, 8]: 19.3 ± 0.4 lipid bodies/cell
lipid bodies (mean ± SEM)/cell [1, 16]: 16.9 ± 0.4 lipid bodies/cell

CCCCCC=CCC=CCC=CC=CC(O)CCCC(=O)O (stereo not drawn) [5-HETE, 5-hydroxy-6,8,11,14-eicosatetraenoic acid]
induction of lipid body formation [3]: elicit lipid body formation
induction of lipid body formation [2]: elicit lipid body formation

CN1C(C(=O)Nc2ccccn2)=C(O)c2ccccc2S1(=O)=O [piroxicam]
inhibition at 10 µg/mL [1, 12]: 61%
inhibition at 10 µg/mL [1, 11]: 50%
lipid bodies (mean ± SEM) PMN [1, 12]: 7.2 ± 0.4 lipid bodies/PMN
inhibition of arachidonic acid-induced lipid body formation [1]: significantly inhibited
inhibition of oleic acid-induced lipid body formation [1]: significantly inhibited
lipid bodies (mean ± SEM) PMN [1, 11]: 10.4 ± 0.4 lipid bodies/PMN

COc1ccc2c(c[n+](C)c3c4cc5c(cc4ccc23)OCO5)c1OC [chelerythrine]
inhibition at 0.5 µM [1, 17]: 50%
inhibition at 1 µM [1, 7]: 90%
inhibition at 0.5 µM [1, 18]: 25%
inhibition at 1 µM [1, 8]: 71%
lipid bodies (mean ± SEM)/cell [1, 17]: 7.5 ± 0.3 lipid bodies/cell
lipid bodies (mean ± SEM)/cell [1, 7]: 5.1 ± 0.3 lipid bodies/cell
lipid bodies (mean ± SEM)/cell [1, 18]: 7.5 ± 0.2 lipid bodies/cell
lipid bodies (mean ± SEM)/cell [1, 8]: 5.8 ± 0.3 lipid bodies/cell
